Assays:
[1] = tested on: human iPS cell-derived intestinal organoid; experiment: Inflammatory bowel disease model using intestinal organoid (TNF-α addition); format: cell-based
Method: (A) Protocol for preparation of an inflammatory bowel disease model. (B) The mRNA expression analysis of an intestinal organoid in the cases of TNF-α and infliximab addition. Average±S.D. (n=3). The mRNA expression level of the control was regarded as 1. (C) Immunofluorescent staining of an intestinal organoid in the cases of TNF-α and infliximab addition. DAPI: Nuclear staining. Scale bar: 50 μm.
(§1) To prepare an inflammatory bowel disease model and a fibrosis model, 30 ng/mL TNF-α and 30 ng/mL TNF-α+2 ng/mL TGF-β were added for 96 hours and 48 hours from Day 34 after completion of differentiation induction, respectively. To suppress these reactions, 100 ng/mL infliximab (anti-TNF-α antibody) for the inflammatory bowel disease model and 20 μM SB431542 or 20 μM Repsox serving as a TGF-β inhibitor, for fibrosis model were added, respectively, for the same length of time as above. Note that, to enhance the function of an intestinal organoid, PD98059, 5-aza-2′-deoxycytidine, A-83-01 and N-[(3,5-difluorophenyl) acetyl]-L-alanyl-2-phenyl-1,l-dimethylethylester-glycine (DAPT) were added from Day 19 after initiation of differentiation induction to the completion of differentiation. The addition effects in these cases were checked.
Whether an inflammatory bowel disease model can be prepared by using an intestinal organoid prepared by a new differentiation induction method was investigated by adding a main cause, i.e., an inflammatory cytokine, TNF-α, from Day 34 after completion of differentiation induction up to 96 hours (FIG. 7A). The expressions of villin and MUC2 gene decreased by addition of TNF-α; however, the expression of TNF-α increased. The decrease/increase in expression was suppressed by addition of an anti-TNF-α antibody, infliximab (FIG. 7B). Subsequently, expressions of a tight junction protein and an apoptosis marker were confirmed by immunofluorescent staining. It was observed that a tight junction structure is destroyed by addition of TNF-α. The number of cells positive to Caspase-3 increased. These changes were not found in an infliximab addition group (FIG. 7C). In inflammatory bowel disease, it is reported that an inflammatory cytokine affects in-vivo intestinal epithelial cells to destroy tight junction, with the result that the number of mucus secretory cells, i.e., goblet cells, decreases.

CYP3A4 [2] = tested on: CYP3A4
CYP3A4 [3] = experiment: Inducibility of CYP3A4 in human intestinal organoid differentiated by using a polysaccharide polymer; details: VD3 1 μmol/L, 72 hours
[4] = tested on: human iPS cell-derived intestinal organoid; experiment: Fibrosis model using intestinal organoid (TNF-α and TGF-β addition); format: cell-based; details: 20 μM inhibitor with 30 ng/mL TNF-α+2 ng/mL TGF-β, 48 hours
Method: (A) A protocol for preparation of a fibrosis model. (B) The mRNA expression analysis of an intestinal organoid in the cases of addition of TNF-α+TGF-β and TGF-β inhibitor (SB431542, Repsox). Average±S.D. (n=3). The mRNA expression level of the control was regarded as 1.
as §1
In order to reproduce fibrosis of a tissue in-vitro, which is developed by chronic inflammation in inflammatory bowel disease, TNF-α and TGF-β, each are reported as a main cause, were added for 48 hours from Day 34 after completion of differentiation induction (FIG. 8A). […]

CYP3A4 [5] = experiment: CYP3A4 metabolic activity of human intestinal organoid (midazolam, LC-MS/MS); details: 5 μmol/L midazolam, 24 hours; addition of ketoconazole
[6] = 30 ng/mL TNF-α, 96 hours from Day 34

Compound: infliximab: anti-TNF-α antibody
- destruction of tight junction structure and increase of Caspase-3 positive cells (immunofluorescent staining) ([1]; 100 ng/mL infliximab with 30 ng/mL TNF-α, 96 hours): not found
- decrease/increase in expression (villin, MUC2, TNF-α) caused by TNF-α ([1]; 100 ng/mL infliximab with 30 ng/mL TNF-α, 96 hours from Day 34): suppressed

Compound: C=C1/C(=C\C=C2/CCC[C@]3(C)[C@@H]([C@H](C)CCCC(C)(C)O)CC[C@@H]23)C[C@@H](O)C[C@@H]1O [activated vitamin D3, 1α, 25-dihydroxy vitamin D3]
- mRNA expression level of CYP3A4 increased (CYP3A4 [2]): about 1700 fold
- metabolic activity of midazolam (CYP3A4 [3]; 5 μmol/L midazolam, 24 hours): significantly increased
- mRNA expression of CYP3A4 (CYP3A4 [3]; compared to control group): significantly induced

Compound: NC(=O)c1ccc(-c2nc(-c3ccc4c(c3)OCO4)c(-c3ccccn3)[nH]2)cc1 [SB431542]
- decrease/increase in expression of fibrosis markers caused by TNF-α and TGF-β [4]: suppressed

Compound: Cc1cccc(-c2[nH]ncc2-c2ccc3ncccc3n2)n1 [Repsox]
- decrease/increase in expression of fibrosis markers caused by TNF-α and TGF-β [4]: suppressed

Compound: CC(=O)N1CCN(c2ccc(OCC3COC(Cn4ccnc4)(c4ccc(Cl)cc4Cl)O3)cc2)CC1 (stereo not drawn) [ketoconazole]
- midazolam's metabolic activity (CYP3A4) (CYP3A4 [5]): significantly inhibited

Compound: TNF-α
- number of cells positive to Caspase-3 ([1]; 30 ng/mL TNF-α, 96 hours): increased
- tight junction structure (immunofluorescent staining) ([1]; 30 ng/mL TNF-α, 96 hours): destroyed
- expression of TNF-α [1, 6]: increased
- expressions of villin and MUC2 gene [1, 6]: decreased

From patent publication US12134784B2, “Method for preparing intestinal tract cell layer derived from pluripotent stem cell” (PUBLIC UNIVERSITY CORPORATION NAGOYA CITY UNIVERSITY, priority 2018, dated 2024)
